Assay results reported in a melting point compilation (Tetko et al.; mined from patent text by program, amines drawn as free bases though some values may be those of a salt).

Row | melting point [°C] | Structure (SMILES)
1 | 154 | CC(=O)OC1CSC(Oc2ccc(-c3c(C)n[nH]c3C)nc2)C(OC(C)=O)C1OC(C)=O (stereo not drawn)
2 | 128 to 130 | CS(=O)(=O)c1ccc(-c2cc(C(CCCO[N+](=O)[O-])=NO)nn2-c2ccccc2)cc1
3 | 225 | O=C(O)CCCc1cc2nc(Cl)ccc2n1S(=O)(=O)c1ccc2c(c1)CCO2
4 | 79 to 80 | c1ccc(C(c2ccccc2)N2CCN(CCCSc3ccc4nncn4n3)CC2)cc1
5 | 208 to 210 | CCOc1ccccc1N1CCN(CCC2OCCc3cc(C(N)=O)ccc32)CC1 (stereo not drawn)
6 | 140 | O=C1c2cccc3cc4ccccc4c(c23)C(=O)N1CCCNCCCNCCCN1C(=O)c2cccc3cc4ccccc4c(c23)C1=O
7 | > 260 | Cn1c(=O)cc(C(=O)O)c2cc(C(=O)c3ccc(Cl)cc3)ccc21
8 | 201 to 204 | O=C(NCc1ccc(Cl)cc1)c1cn2c3c(cc(CN4CCOCC4)cc3c1=O)CN(Cc1ccccc1)C2=O
9 | 78 to 80 | COc1ccc2c(c1)C(CCCN1C(=O)c3ccccc3C1=O)=CCO2
10 | 133 to 140 | O=C(O)C(=O)CC(=O)c1ccc(Cc2ccc(Cl)c(Cl)c2)cc1
11 | 104 to 106 | CC(C)(C)OC(=O)N1C[C@@H](Oc2ccc(N)cc2)C[C@@H]1C(=O)Nc1cc(C(C)(C)C)c(O)c(C(C)(C)C)c1
12 | 109 | O=C(c1ccccc1)c1cccc(NC(=O)c2ccn3c2CSC3c2cccnc2)c1 (single isomer, unassigned; (+))
13 | 189 to 190 | C(=C(c1ccccc1)c1ccccc1)c1ccc(N(c2ccccc2)c2ccc3c4c(cccc24)CC3)cc1
14 | 67 to 72 | Cn1cnc(Cc2cccc3c2OC(C)(C)OC3)c1
15 | 155 to 156 | CC(C)n1nc(-c2sc(C(=O)N3CCN(C)CC3)nc2-c2ccccc2)ccc1=O
16 | 216 to 217 | COc1ccccc1-n1c(-c2cc(-c3ccc(Cl)cc3)c(N3CCOCC3)s2)nc2ccccc2c1=O
17 | 67 to 68 | CC(C)(CCl)C(=O)COc1ccc(-c2ccc(Cl)cc2)cc1
18 | 159 to 161 | N#CCCNC(=O)c1cccc(-c2ccc3occ(-c4ccc(Cl)cc4Cl)c3c2)c1
19 | 178 | OC1CSC(Oc2cccc(-c3ccncc3)n2)C(O)C1O (stereo not drawn)
20 | 117 to 119 | Cc1cccc(NC(=O)NC2CN(C(=O)NC3CCCCC3)c3ccccc3N(CC(=O)c3ccccc3C)C2=O)c1 (stereo not drawn)
21 | 238 | NS(=O)(=O)c1ccc(-c2cccc(-c3nc(-c4ccc(F)c(F)c4)cc(C(F)(F)F)n3)c2)s1
22 | 181 to 183 | C[C@@H](n1ncn(-c2ccc(-n3ncn(-c4ccc(OCC(F)(F)C(F)F)cc4)c3=O)cc2)c1=O)[C@@]1(c2ccc(F)cc2F)CO1
23 | 190 to 191 | COc1cc2c(c3c1OC(C)(C)C3)C(c1ccnc(-n3c(=O)ccc4ccccc43)c1)=NC(C)(C)C2
24 | 239 to 241 | Cc1ccc(-c2nc3ccccc3c(=O)[nH]2)cc1
25 | 111 to 112 | CCO/C(=N/OC(C)=O)C1Cc2cc(C(=O)c3ccccc3F)c(O)c(Cl)c2O1 (stereo not drawn)

Row | melting point [°C] | Structure (SMILES)
26 | 220 to 221 | CN(C)CC(=O)Nc1cccc(-c2cc(-c3ccccc3O)nc(NC(=O)c3cccs3)c2C#N)c1
27 | 210 to 211 | CC(=O)Nc1nc(CCc2ccc(CO)cc2)c(Cc2ccc(S(C)(=O)=O)cc2)s1
28 | 221 | O=c1ccc2nc3ccccc3sc-2c1Cl
29 | 93 to 94 | CCOc1ccc(-c2ccc(Cl)nn2)c(OCC2CO2)c1 (stereo not drawn)
30 | 53.5 to 54.5 | CCC(=O)Oc1ccc(C(=O)c2ccccc2)cc1
31 | 223 to 225 | CC12CCC(=O)NC1CCc1cc(-c3cccc([N+](=O)[O-])c3)ccc12 (single isomer, unassigned; (+))
32 | 130 to 132 | CCn1nc(C#N)c(Nc2ccc(Cl)cc2[N+](=O)[O-])n1
33 | 207 to 210 | Cc1nc(-c2ccccc2Cl)n2c1nnc1ccc(N3CCCCC3)cc12
34 | 218 to 220 | COc1nc(N)nc(-c2ccccc2)c1-c1ccc(=O)n(C)n1
35 | 60 to 61 | CCOc1c(C2=C(C(C)(C)C)C(C)(C)CO2)oc2ccc(OC)cc12
36 | 260 to 264 | Cc1[nH]cnc1/C=C1\CCc2c(c3cccc4c3n2CCC4)C1=O
37 | 158 to 159 | Cc1c(C(=O)Nc2ccc(N(CCO)CCO)c(C#N)c2)cnn1-c1ccc(F)cc1
38 | 90.8 to 92.6 | CCC(C)COC(=O)c1ccc(OC(=O)c2ccc(O)cc2)cc1 (stereo not drawn)
39 | 80 to 82 | O=[N+]([O-])c1ccc(Oc2cncc(Cl)c2)cc1
40 | 103 to 106 | CCOC(=O)C(=O)c1ccc(OCC(=O)N2CCOCC2)cc1
41 | 112 to 114 | Cc1ccccc1C(CCC(=O)O)Oc1cc(OCc2ccsc2)ccc1-c1ncco1 (racemic)
42 | 232 to 235 | COc1cc2c(cc1-c1c(C)nn(C)c1C)-c1c(-c3cccs3)c3c(n1CC2)C(=O)N(C(C)C)CCN(C(=O)C(C)C)C3
43 | 174 to 175 | CC1(C)OC(c2ccc(S(C)(=O)=O)c(Cl)c2)=C(c2ccccc2)C1=O
44 | 167 to 169 | CS(=O)(=O)c1ccc(-c2cnn(C=C(F)C(F)(F)C(F)(F)F)c(=O)c2-c2ccc(F)cc2)cc1
45 | 219 to 221 | C[C@H](NC(=O)OCc1ccccc1)C(=O)N[C@@H](C)C(=O)Nc1ccccc1
46 | 193 | COc1ccccc1C1C(=O)Nc2cc(C)c(Cl)cc21 (stereo not drawn)
47 | 151 to 153 | CCCC(=O)c1cnc2c(OC)cccc2c1Nc1c(C)cc(O)c(O)c1C
48 | 40 to 48 | COC(=O)C1(C(F)(F)CCCCOc2ccc(Cl)cc2)CO1 (stereo not drawn)
49 | 188 to 190 | COc1cc(C(=O)O)ccc1OCc1cccc(OCc2ccc3ccccc3n2)c1
50 | 210 to 212 | CCCn1c(CCOC)nc2c(N)nc3cc(Oc4ccc(S(C)(=O)=O)cc4)ccc3c21

Second part, the compound before the results:

Row | Structure (SMILES) | melting point [°C]
51 | Clc1ccc2[nH]cc(C3=CCC4(CC3)OCCO4)c2c1 | 178 to 181
52 | O=c1[nH]c2ccccc2n1CCCCCCCl | 80 to 84
53 | Clc1nnc(Cc2ccncc2)c2ccccc12 | 116 to 119
54 | Cc1cc(Br)cc(C)c1NC(=O)C(C)Br (stereo not drawn) | 187 to 189
55 | CCOC(=O)c1cc2c(C=O)c(OC[C@H]3CO3)ccc2[nH]1 | 152 to 154
56 | COc1cc2c(cc1OC)C(C=O)c1ccccc1CC2 (stereo not drawn) | 130 to 132
57 | CCCCCCC(C)(C)c1cc(OCc2ccccc2)c(C2=C(C(C)(C)C(N)=O)CCC(C)C2)c(OCc2ccccc2)c1 (stereo not drawn) | 113 to 114
58 | COCC(=O)N[C@@H]1c2cc(C#N)ccc2OC(C)(C)[C@H]1O (relative stereo) | 162 to 163
59 | Fc1ccc(-c2[nH]cc(C3=CC4CCC(C3)N4)c2-c2ccncc2)cc1 (stereo not drawn) | 212 to 213
60 | CCCC(O)(CCC)c1c2c(nn1C)N(c1c(C)cc(C)cc1Cl)CCC2 | 129 to 130
61 | CC(CC#N)C(C#N)(c1ccc(N2CCOCC2)c([N+](=O)[O-])c1)N1CCOCC1 (stereo not drawn) | 175 to 177
62 | O=C(NCCc1ccc(O)c(O)c1)C1CC1 | 174 to 176
63 | CN1Cc2c(C(=O)OC(C)(C)C)ncn2-c2cccc(I)c2C1=O | 203 to 204
64 | COCc1ccc(N)c(O)c1 | 108
65 | CN(CCO)C(=O)NC(CS)Cc1ccccc1 (single isomer, unassigned; (+)) | 86
66 | CNC(=O)N(O)C(C)c1ccc(Cl)cc1 (stereo not drawn) | 117 to 120
67 | O=C(NC(CO)CO)c1cnccc1C(F)(F)F | 155 to 156
68 | Cc1onc(-c2ccccc2)c1C(=O)N(CCN(C)C)c1ccccc1 | 88 to 89
69 | O=C(NC1C2CC3CC(C2)CC1C3)C1CCCCN1Cc1ccccn1 (stereo not drawn) | 126 to 127
70 | CCCCCCSc1nn2c(=O)cc(Cl)nc2s1 | 95 to 96
71 | COc1ccc(CCNC(=O)CC=CCC(=O)NCCc2ccccc2)cc1OC | 150 to 152
72 | CNc1cccc(S(=O)(=O)NC(=O)Nc2nc(OC)cc(OC)n2)n1 | 166 to 168
73 | CCCCc1sc(C(N)=O)c2c1-c1nn(C)cc1CC2 | 227 to 228
74 | S=C(Cc1ccccc1N1CCOCC1)N1CCOCC1 | 140

Row | Structure (SMILES) | melting point [°C]
75 | Nc1cc(OCCO)ncn1 | 133 to 137
76 | CC(C)(C)OC(=O)N1CCN(CC(=O)Nc2ccc(CC#N)cc2)CC1 | 137 to 138
77 | Cc1cccc(C2CCN(CCCCCC(=O)N3Cc4ccccc4C3)CC2)c1C#N | 132
78 | Cc1nc(-c2ccc(O)c(C)c2O)no1 | 224 to 225
79 | Cc1[nH]cnc1CSCCNc1[nH]cc(Cc2ccccc2)c1[N+](=O)[O-] | 192 to 193
80 | Clc1ccc(C=Cc2ccccc2)cc1 | 129 to 130
81 | COc1ccnc(CSCCN=C(NC#N)SC)c1 | 91.5 to 92.5
82 | CC(C)(O)C#Cc1ccc(C#N)cc1Cl | 63 to 65
83 | CC(=O)N1CC(C)C(=O)N(C(C)=O)C1=O (stereo not drawn) | 130 to 131
84 | N#CN=C(Nc1ccccc1Br)Nc1ccc(C#N)c(Br)c1O | 142
85 | CCCC1=C(C(=O)OCC)C(c2cccc([N+](=O)[O-])c2)C(C(=O)OCC)=C(CCC)N1COCC | 109 to 110
86 | CC(C)(C)c1ccc(OCC(O)CCCl)cc1 (stereo not drawn) | 45 to 47
87 | O=C(O)Cc1onc(O)c1Br | 167
88 | CC1(C)CCC(C)(C)c2cc(-c3nc4ccc(C(=O)O)cc4s3)ccc21 | 292 to 293
89 | CCCCCN(CCC12CC3CC(CC(C3)C1)C2)C(=O)NCCNc1ccncc1 | 134
90 | NC(=O)C1Oc2cc(Cl)c(S(=O)(=O)c3ccc(Cl)cc3)cc2O1 (stereo not drawn) | 240 to 242
91 | NC(=O)C(F)(I)C(F)(F)F (stereo not drawn) | 75 to 77
92 | CSc1cnc2ccsc2c1O | 210 to 212
93 | CCCCN=C(O)c1c(Cl)c(Sc2ccccc2)c(Sc2ccccc2)c(Cl)c1C(=O)O | 215 to 216
94 | COc1ccc(NS(C)(=O)=O)nc1 | 156 to 158
95 | Cc1cn(C)c2c1C(=O)CC(c1ccccc1)C2 (stereo not drawn) | 155 to 156
96 | CSc1n[nH]c(=O)n1C | 97
97 | CCOC(=O)c1ncn2c1[C@@H]1CCCN1C(=O)c1sccc1-2 | 212 to 213
98 | CC(=O)OCC1OC(Oc2ccc(N)cc2)C(OC(C)=O)C(OC(C)=O)C1OC(C)=O (stereo not drawn) | 130 to 133
